Reference: patent US20030055101A1, “Use of statins to inhibit formation of osteoclasts” (priority 2001, published 2003)
Where a name gives a salt, the structure may show the parent alone.

Legend:
[1] = test system: primary murine bone marrow cell cultures; assay: RANKL-induced osteoclastogenesis in bone marrow cell cultures (TRAP staining); assay type: cell-based, mouse; conditions: for number of TRAP-positive cells formed: added 2 days post RANKL stimulation (5 days after isolation)
Description: Bone marrow cells were cultured with 100 ng/mL of M-CSF for 3 days. The cells were further cultured for 5 more days with either atorvastatin, its S,S-enantiomer or osteoprotegerin (OPG) in the presence of RANKL and M-CSF. Cells were then fixed and stained for TRAP. […] The data shown are mean ±SD (n=4 wells/treatment).
Bone marrow cells treated with M-CSF for 3 days were stimulated with RANKL as well as atorvastatin (0.01 nM, […], and 1 μM), its S,S-enantiomer or OPG. In some experiments atorvastatin was added 2 days post RANKL stimulation (5 days after isolation). On Day 8 postisolation, cells were fixed and stained for TRAP. TRAP-positive multinucleated cells were counted and represented. The data shown are mean of ±SD (n=4 wells/treatment).
Bone marrow cells were cultured in the presence of 100 ng/mL of recombinant murine M-CSF for 3 days after isolation. The cells were then stimulated with murine RANKL (100 ng/mL) in the presence of various doses of atorvastatin (0.01 nM, 1 nM, and 1 μM), S,S-enantiomer of atorvastatin, or osteoprotegerin (OPG) and further cultured for 5 more days and stained for TRAP activity (see FIG. 1).
Osteoclastogenesis involves a series of events which include differentiation, proliferation, activation, and fusion to form multinucleated cells that are capable of resorbing bone. To examine the stage at which atorvastatin inhibits osteoclastogenesis, atorvastatin was added at various times to mouse bone marrow cells in the presence of M-CSF and RANKL.
Briefly, after removing the femur aseptically, the adherent soft tissue was separated from the bone. Using a syringe and a needle, the marrow was flushed using alpha minimum essential medium (α-MEM). Osteoclasts were obtained by culturing bone marrow cells (0.15×10^6 cells/well) in α-MEM containing 10% fetal bovine serum (FBS), 100 IU penicillin, 100 μg/mL of streptomycin and 100 ng/mL of recombinant murine M-CSF for 3 days in 48-well plates. The osteoclasts thus obtained were further cultured with RANKL±atorvastatin, S,S-enantiomer of atorvastatin or osteoprotegerin (OPG), for 5 days. […] In some experiments, the compounds were added on Day 5 postisolation.
After washing twice with distilled water that was prewarmed to 37° C., the cells were incubated in acetate buffer containing naphthol AS-B1 and Fast Garnet GBC solution for 45 minutes at 37° C. TRAP-positive cells are typically brown in color when viewed under the microscope. The total number of TRAP-positive cells with 3 or more nuclei in each well were counted. TRAP activity is a phenotypic marker of mature osteoclasts.

[2] = test system: osteoclasts in ovariectomized rats; assay: Osteoclast numbers in ovariectomized rats (tibia histomorphometry); assay type: in vivo, rat; conditions: for osteoclast numbers: 5 weeks
Description: Rats were ovariectomized according to the standard protocol and were administered orally with various doses of atorvastatin (2.5, 5, and 10 mg/kg body weight) for 5 weeks. Tibiae were analyzed for osteoclast number by histomorphometry. Ethinyl estradiol (EE) (0.4 mg/kg), a known bone protective agent, was used as a positive control.
Ovariectomy-induced bone loss in rats is an established model of osteoporosis, wherein estrogen insufficiency leads to increased osteoclastogenesis, possibly due to enhanced cytokine production. To test whether statins decrease bone resorption in vivo, ovariectomized rats were given orally various doses of atorvastatin (2.5, 5, or 10 mg/kg body weight) for 5 weeks. At the end of the study, the animals were sacrificed, and histomorphometric analysis was performed on tibia obtained from the animals.
The rats were ovariectomized according to the standard protocol. Briefly, after anesthesia the rats were cleaned with antiseptic solution. A small incision was made on the back of the animal, and the ovaries were located carefully underneath the fat tissue. After proper clamping, ovaries were removed with a scalpel blade. Also, the fallopian tube with the uterine horn was sealed by electrocautery. Later, the skin incision was closed using wound clips. After recovery from the surgery, animals were randomized into 6 groups of 8 animals each (sham operated, OVX, OVX+ atorvastatin 2.5, 5, 10 mg/kg body weight and OVX+ ethinyl estradiol) and dosed with various concentrations of atorvastatin and vehicle control every day for a period of 5 weeks.
Histomorphometric analysis was performed using decalcified sections of the proximal tibia for cancellous bone and undecalcified sections for cortical bone. Briefly, tibiae were decalcified using 10% ethylene diaminetetraacetic acid (EDTA), followed by […] in ascending concentrations of ethanol and embedded in glycol methacrylate (GMA) resin. The specimens were sectioned at 5 to 10 μm and stained with TRAP and counter stained with methyl green for determination of cellular parameters. Bone histomorphometry was performed using an OsteoMeasure image analysis system connected via a video system to a suitable light microscope.

RAW 264.7 cells = assay: RANKL-induced osteoclastogenesis in RAW 264.7 cells (TRAP staining); assay type: cell-based
Description: Raw cells (2000/well) were stimulated with RANKL (50 ng/mL)±atorvastatin and S,S-enantiomer of atorvastatin for 5 days and TRAP staining was performed at the end of Day 5 and the data is expressed as % inhibition of number of TRAP-positive cells compared to control.
RAW cells were plated at a density of 2000 cells/well in a 48-well plate and cultured overnight in alpha-MEM medium containing antibiotics. Cells were treated with either RANKL (50 ng/mL)±atorvastatin or the S,S-enantiomer of atorvastatin (10, 1, and 0.01 μM) for 5 days and stained for TRAP enzyme. Purple stained cells with three or more nuclei were counted under the microscope and represented as % inhibition of osteoclastogenesis compared to control cells.
RAW cells were cultured in α-MEM containing 10% FBS, 100 IU penicillin, 100 μg/mL of streptomycin. Cells were plated at a density of 2000 cells/well in a 48-well plate. After overnight incubation, the cells were stimulated with RANKL (50 ng/mL)±atorvastatin, S,S-enantiomer of atorvastatin or OPG for 5 days and stained for TRAP at the end of Day 5.
After initial wash with 1×PBS, the cells were fixed for 30 seconds using acetone based fixing solution containing acetone, citric acid and 37% formaldehyde. After washing twice with distilled water that was prewarmed to 37° C., the cells were incubated in acetate buffer containing naphthol AS-B1 and Fast Garnet GBC solution for 45 minutes at 37° C. TRAP-positive cells are typically brown in color when viewed under the microscope. The total number of TRAP-positive cells with 3 or more nuclei in each well were counted. TRAP activity is a phenotypic marker of mature osteoclasts.

[3] = normal and ovariectomized (OVX) rats; cited from earlier work
[4] = test system: osteoblast-osteoclast cocultures; conditions: 10 μM; cited from earlier work

## CC(C)c1c(C(=O)Nc2ccccc2)c(-c2ccccc2)c(-c2ccc(F)cc2)n1CC[C@@H](O)C[C@@H](O)CC(=O)O [atorvastatin, [R-(R*,R*)]-2-(4-fluorophenyl)-β,δ-dihydroxy-5-(1-methylethyl)-3-phenyl-4-[(phenylamino)carbonyl]-1H-pyrrole-1-heptanoic acid calcium salt (2:1) trihydrate]
[1]; 0.01 nM to 1 μM
  number of TRAP-positive, multinucleated cells: significantly reduced
[1]; Mus musculus, primary murine bone marrow cell cultures, read-out: IC50, number of TRAP-positive, multinucleated cells
  IC50: 0.43 nM
[1]
  number of TRAP-positive cells formed: able to block
[1]; time course
  effect when added on Day 5 compared with Day 3 postisolation: much more pronounced
[2]; 5 mg/kg orally, ovariectomized rats
  osteoclast numbers: significantly decreased
[2]; 10 mg/kg orally, ovariectomized rats
  osteoclast numbers: significantly decreased
[2]; both 5 and 10 mg/kg doses, ethinyl estradiol positive control
  decrease of osteoclast formation compared with ethinyl estradiol: more effective
[2]; daily oral 2.5-10 mg/kg body weight, 5-week period, ovariectomized rats
  number of osteoclasts formed: significantly decreased
RAW 264.7 cells; 0.01 nM to 1 μM
  number of TRAP-positive, multinucleated cells: significantly reduced
RAW 264.7 cells; Mus musculus, RAW264.7, 120 h, 0.01 micromolar, 5 days, RANKL 50 ng/mL, read-out: % inhibition of RANKL-induced multinucleated cell formation
  inhibition at 0.01 µM: ~80%
RAW 264.7 cells; Mus musculus, RAW264.7, RAW cells, read-out: IC50, number of TRAP-positive, multinucleated cells
  IC50: 170 nM

## CC[C@H](C)C(=O)O[C@H]1C[C@@H](C)C=C2C=C[C@H](C)[C@H](CC[C@@H]3C[C@@H](O)CC(=O)O3)[C@H]21 [lovastatin]
[3]
  increase in total bone area compared to BMP-2 or b-FGF: greater dose-dependent increase
[4]
  tartrate-resistant acid phosphatase (TRAP) activity: inhibits

## (3S,5S)-7-[2-(4-fluorophenyl)-5-isopropyl-3-phenyl-4-phenylcarbamoyl-pyrrol-1-yl]-3,5-dihydroxy-heptanoic acid calcium salt (2:1) [S,S-enantiomer of atorvastatin]
[1]
  number of TRAP-positive cells formed: no differences were observed
RAW 264.7 cells; 10, 1, and 0.01 μM, 5 days, RANKL 50 ng/mL
  % inhibition of RANKL-induced multinucleated cell formation, compared with atorvastatin: significantly less % inhibition

B1: osteoprotegerin (protein, UniProt O00300 22-401, looked up)
Tumor necrosis factor …: ETFPPKYLHYDEETSHQLLCDKCPPGTYLKQHCTAKWKTVCAPCPDHYYTDSWHTSDECLYCSPVCKELQYVKQECNRTHNRVCECKEGRYLEIEFCLKHRSCPPGFGVVQAGTPERNTVCKRCPDGFFSNETSSKAPCRKHTNCSVFGLLLTQKGNATHDNICSGNSESTQKCGIDVTLCEEAFFRFAVPTKFTPNWLSVLVDNLPGTKVNAESVERIKRQHSSQEQTFQLLKLWKHQNKDQDIVKKIIQDIDLCENSVQRHIGHANLTFEQLRSLMESLPGKKVGAEDIEKTIKACKPSDQILKLLSLWRIKNGDQDTLKGLMHALKHSKTYHFPKTVTQSLKKTIRFLHSFTMYKLYQKLFLEMIGNQVQSVKISCL
notes: soluble decoy receptor for RANKL
[1]; 50 ng/mL added simultaneously with RANKL
  number of TRAP-positive multinucleated cells formed by RANKL: completely inhibited
